Data: PubChem BioAssay (NCI)
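Cells were grown in 96-well plates and exposed to each compound for 48 hours at five concentrations; endpoints were interpolated linearly between bracketing concentrations, or set to the highest concentration if not reached. Here, GI50 denotes the concentration required for 50% inhibition of growth. The concentration for full growth arrest is given as TGI.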

Columns and labels:
Test in all cases: inhibition of tumour cell growth, NCI panel, 48 h
[1] = test system: A498 renal
[2] = test system: CAKI-1 renal
[3] = test system: HOP-92 NSCLC
[4] = test system: HT29 colon
[5] = test system: KM12 colon
[6] = test system: NCI-H522 lung
[7] = test system: SK-MEL-2 melanoma
[8] = test system: SK-MEL-5 melanoma
[9] = test system: SNB-75 CNS
[10] = test system: TK-10 renal
[11] = test system: UACC-257 melanoma
[12] = test system: UACC-62 melanoma

C=C(C)[C@@H]1CC[C@]2(C(=O)N[C@H](CO)Cc3ccccc3)CC[C@]3(C)[C@H](CC[C@@H]4[C@@]5(C)CCCNC(C)(C)[C@@H]5CC[C@]43C)[C@@H]12
GI50 [1]: 1490 nM | TGI [1]: 2940 nM | GI50 [2]: 1490 nM | TGI [2]: 2890 nM | GI50 [3]: 1420 nM | TGI [3]: 3020 nM | GI50 [4]: 240 nM | TGI [4]: 539 nM | GI50 [5]: 1470 nM | TGI [5]: 2910 nM | GI50 [6]: 1750 nM | TGI [6]: 3350 nM | GI50 [7]: 1720 nM | TGI [7]: 3180 nM | GI50 [8]: 1670 nM | TGI [8]: 3070 nM | GI50 [9]: 1430 nM | TGI [9]: 2870 nM | GI50 [10]: 1610 nM | TGI [10]: 3080 nM | GI50 [11]: 1780 nM | TGI [11]: 3340 nM | GI50 [12]: 1760 nM | TGI [12]: 3390 nM
